For one assay, the system named is resting B cells. Put plainly: In vitro class switch recombination IgM to IgG1 in resting B cells stimulated with anti-CD40 and IL-4. It counts as cell-based, mice. As to conditions: four days in culture; for class switching of IgM to IgG1: gated on B220+, vs untreated B cells. The protocol: Female C57 B/6 mice were sacrificed and spleens harvested and generated into single cell suspensions. Lymphocytes were isolated using Ficoll separation (GE Healthcare) and interface layer was collected after centrifugation (1000×g for 10 minutes). Cells were FC Blocked as described above and then stained with CD43 FITC (clone S7) and then washed and stained with anti-FITC microbeads (Miltenyi) at 4° C. for 30 minutes. Cells were then depleted using magnetic separation autoMACS deplete(s) program (Miltenyi). The depleted fraction was used for experiments as these consist of resting B cells.
B cells plated in a 24 well plate at 200,000 cells pre well with IMDM media, as described in Example 3 (1 ml media/well). B cells were then stimulated using anti-CD40 antibody (2.5 μg/ml clone IC-10 eBiosciences) and recombinant mouse IL-4 (10 ng/ml, R&D). […] All stimulating reagents were added at the seeding of the culture on day 0 and no other drugs were added thereafter.
After four days in culture, amount of class switch to IgG1 was determined by flow cytometric analysis by staining with anti-mouse IgM, IgG1, and B220. Plots are all gated on B220+ cells (FIG. 8A-8F)

For a further assay, the system named is germinal center B cells. Description: Flow cytometric analysis of germinal center B cells from immunized mice treated with CGS-21680 (Experiments 1 and 3). Format: in vivo. The protocol:
All mice were sacrificed on day 6.
All mice were sacrificed on day 21.
Flow cytometric analysis of germinal center B cells from Experiment 1 (gated as lymphocytes, B220+, Gl-7 positive, CD38 negative; FIGS. 10E and 10F) and Experiment 3 (B220 positive, Gl-7 hi, IgD-negative; FIG. 10D) was performed. The flow cytometric analysis was performed according to the protocol discussed in Example.
(In general: In flow cytometry, cells or beads pass a laser one at a time.)

Assay [1] has as its system Gs coupled protein receptor. The settings on record: dopamine at day 44 and day 62 plus inspiration of hyperoxic gas mixture; day 47 and day 65; vs untreated mice.
Experimental: 12 male wild type C57 B/6 mice 10-12 weeks of age are immunized as described in Example 1. At day 21, the mice are given an immune boost of 1 μg NP-OVA with adjuvant via intraperitoneal injection. At day 42, the mice are given an immune challenge of 1 μg NP-OVA without adjuvant via tail vein injection. […] Samples at 5 days and 23 days post immune challenge (i.e., day 47 and day 65 of the assay) will be subjected to ELISA measurement for NIP-25.
Where [2] appears, read: Experiment 1, 5 subcutaneous injections 1 mg/kg days 4-6, sacrificed day 6.

This note sets out measurements from US9782428B2, “Method for generation of broadly neutralizing anti-pathogen antibodies” (Northeastern University, priority 2013, dated 2017).

“Also recorded” adds a separate entry of the source.

Consider `CCNC(=O)[C@H]1O[C@@H](n2cnc3c(N)nc(NCCc4ccc(CCC(=O)O)cc4)nc32)[C@H](O)[C@@H]1O` [CGS21680], for which the “class switching of IgM to IgG1” value in the assay with resting B cells (10 μM) is “has class switching”. Besides, the “amount of class switched NP-PE binding cells” value in the assay with germinal center B cells (setting [2]) is “higher amount”. Further, the “proportion of class switched IgG1 germinal center B cells” value with germinal center B cells (setting [2]) is given as “enhanced class switching”; in the assay on germinal center B cells (Experiment 1, 5 subcutaneous injections 1 mg/kg days 4-6, sacrificed day 6, listed as CGS-21680) it was “increased proportion”. Besides, the “frequency of germinal center B cells” value in the assay on germinal center B cells (Experiment 3, 1 mg/kg subcutaneous twice daily day 8-20, sacrificed day 21, compared to control) is “decrease”.
On to `CCNC(=O)[C@H]1O[C@@H](n2cnc3c(N)ncnc32)[C@H](O)[C@@H]1O` [NECA, N-ethylcarboxyamidoadenosine], for which the “class switching of IgM to IgG1, dependence on concentration” value with resting B cells (100 nM, 1 μM, 10 μM) is on record as “class switching increases as the concentration of NECA increases”. The “class switching of IgM to IgG1” value is “increases the class switching; also recorded: has class switching” in the assay with resting B cells (100 nM), “has class switching” in the assay with resting B cells (1 μM) and “has class switching” in the assay with resting B cells (10 μM).
Consider `NCCc1ccc(O)c(O)c1` [dopamine], for which the “levels of NIP-25” value in assay [1] is on record as “higher levels”.
